pIC50: −log10 of the molar value. Where “and” joins values, the source holds several entries; their conditions need not be identical. Equal values may be shown once.

In this assay the test system is 565232-114-T-J1-PDC complex spheroid viability. The assay can be described thus: Anticancer human tumor 565232-114-T-J1-PDC patient-derived bladder carcinoma cell line growth inhibition [CLK]. The following applies: for viability, T/C: stronger effect = lower value; for pIC50: curve of compound. The source says: A high-throughput screen of multi-cell type tumor spheroids was designed to identify active combinations of […] and targeted small molecules. Complex spheroids include a stromal component modeled by human endothelial cells (HUVEC) and fibroblasts modeled by human mesenchymal stem cells (MSCs). The concentration ranges selected for each drug and investigational agent were based upon clinically achievable concentrations if the clinical Cmax of the agent was known.
Compounds. The drugs and investigational agents: cirtuvivint (SM08502; NSC835563), CC-671 (NSC850746), vemurafenib (NSC761431), tapotoclax (NSC804041), sotorasib (NSC818433), adagrasib (NSC831453), MRTX-1133 (NSC836407), BAY2416964 (NSC825713), copanlisib (NSC816437), inavolisib (NSC800729), abemaciclib (NSC768073), osimertinib (NSC779217), entinostat (NSC756642), eltanexor (KPT-8602, NSC794443), venetoclax (NSC766270), ceralasertib (NSC777638), bortezomib (NSC756655), olaparib (NSC753686), talazoparib (NSC767125), alisertib (NSC759677), peposertib (NSC802822), gemcitabine (NSC613327), 5-fluorouracil (NSC19893), SN-38 (NSC673596), oxaliplatin (NSC266046), paclitaxel (NSC125973), and doxorubicin (NSC123127), were obtained from the National Cancer Institute (NCI) Developmental Therapeutics Program Chemical Repository. The FDA-approved anticancer drug set is available from the Developmental Therapeutics Program at https://dtp.cancer.gov/organization/dscb/obtaining/available plates.htm. […] The stock solutions were prepared in dimethyl sulfoxide (DMSO, Sigma-Aldrich, St. Louis, MO, cat. D2650), except for the platinum complexes which were prepared in saline (Quality Biological, Gaithersburg, MD, cat. 114-055-101), at 800-fold the tested concentration and stored at -70 degrees C prior to their use. All drugs and investigational agents were tested over a range starting from a high concentration at or near the clinical Cmax and decreasing in half-log increments. If the clinical Cmax for an agent had not been determined, the highest concentration tested was 10 microM.
Cell Culture. All cells were maintained in an incubator at 37 degrees C and 5% CO2 with 95% humidity. The PDC lines were cultured according to standard operating procedures established by the NCI PDMR. Briefly, all PDCs were thawed and cultured in Matrigel-coated flasks prepared with a working solution of 1X Ham's F-12 nutrient mix, without supplementation (Invitrogen, Waltham, MA, cat. 11765054), 100 U/mL penicillin-streptomycin (Invitrogen, cat. 15140122), and 2.5% Matrigel (Corning Inc., Corning, NY, cat. 354248) for the first three passages. The 947758-054-R-J2-PDC line was cultured in 6B/Colon 1A media, which includes advanced DMEM/F-12 (Thermo Fisher Scientific, cat. 12634028), 10 mM HEPES (Thermo Fisher Scientific, cat. 15630080), 1X GlutaMAX supplement (Thermo Fisher Scientific, cat. 35050061), 0.1 mg/mL primocin (InvivoGen, cat. ant-pm-2), 10% defined fetal bovine serum, heat inactivated (HyClone Laboratories Inc., cat. SH30070.03HI), 1.25 mM N-Acetyl-L-cysteine (Sigma-Aldrich, cat. A9165), 10 mM nicotinamide (Sigma-Aldrich, cat. N0636), 1X B-27 supplement (Thermo Fisher Scientific, cat. 17504044), 1X N-2 supplement (Thermo Fisher Scientific, cat. 17502048), and 10 microM Y-27632 dihydrochloride (Tocris Bioscience, cat. 1254). The 876862-298-R-J1-PDC was cultured in 6E media, which includes all 6B/Colon 1A media components plus 50% L-WRN conditioned media (ATCC, cat. CRL-3276), 50 ng/mL recombinant human EGF recombinant protein (hEGF; Thermo Fisher Scientific, cat. PHG0311), 10 ng/mL recombinant human fibroblast growth factor 10 (hGFG-10; PeproTech, cat. 100-26), 1 ng/mL recombinant human fibroblast growth factor 2 (hFGF-2; PeproTech, cat. 100-18B), and 1 µM prostaglandin E2 (PGE2; Tocris, cat. 2296). The 227483-062-R1-J1-PDC line was cultured in Panc media, containing all 6E components except hFGF-2, with the addition of 500 nM SB-431542 (Selleckchem, cat. S1067) and 10 nM gastrin (Tocris, cat. 3006). […]
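Also: spheroids exposed to compounds for 7 days before readout.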
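For viability, T/C in this document: 100% = DMSO vehicle wells with luminescence normalized to vehicle control.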

In general, viability, T/C refers to the result in the treated group divided by that in the control group, in per cent. In general, pIC50 refers to −log10 of the IC50, conventionally taken in molar units. `CCCS(=O)(=O)Nc1ccc(F)c(C(=O)c2c[nH]c3ncc(-c4ccc(Cl)cc4)cc23)c1F`: the pIC50 is 5.19. Besides, the viability, T/C (compound 0.0316 µM) was 81.4%. Also, the viability, T/C (compound 0.1 µM) was 88.2%. Further, the viability, T/C (compound 0.316 µM) was 101%. Besides, under “compound 1 µM”, the viability, T/C was 104%. Further, the viability, T/C (compound 3.16 µM) is 113%. Besides, the viability, T/C (compound 10 µM) is 21.5%.

As for `CCN1CCN(Cc2ccc(Nc3ncc(F)c(-c4cc(F)c5nc(C)n(C(C)C)c5c4)n3)nc2)CC1`, the pIC50 is below 6.00. Moreover, the viability, T/C (compound 0.00316 µM) was 90.3% and 109%. The viability, T/C (compound 0.01 µM) was 84.6% and 93.8%. Moreover, the viability, T/C (compound 0.0316 µM) was 99.3% and 92.6%. Also, the viability, T/C (compound 0.1 µM) was 85.6% and 91.6%. Further, the viability, T/C (compound 0.316 µM) was 103% and 81.7%. Further, the viability, T/C (compound 1 µM) is 120% and 115%.

With `CCc1c2c(nc3ccc(O)cc13)-c1cc3c(c(=O)n1C2)COC(=O)[C@]3(O)CC`, the pIC50 is 7.18 and 7.72. The viability, T/C (compound 0.00316 µM) is 91.1% and 106%. In addition, where the note is “compound 0.01 µM”, the viability, T/C is 76.9% and 89.2%. Also, the viability, T/C (compound 0.0316 µM) was 66.4% and 18%. Where the note is “compound 0.316 µM”, the viability, T/C is 18.8% and 5.03%. In addition, for the setting “compound 1 µM”, the viability, T/C is 5.24% and 1.76%.

As usually defined, the IC50 is the point on the concentration scale where inhibition reaches its midpoint. On to `CN1CCN(c2cc(C(=O)Nc3cc4cc(-c5cnn(C)c5)ccc4cn3)ccn2)CC1`, for which the viability, T/C is 97.6% [middle of 9 runs] (compound 0.0316 µM); 106% [middle of 9 runs] (compound 0.1 µM); 19.9% [middle of 9 runs] (compound 0.316 µM); 1.63% [middle of 9 runs] (compound 1 µM); 0.86% [middle of 9 runs] (compound 3.16 µM); 0.47% [middle of 9 runs] (compound 10 µM). Moreover, the IC50 (compound alone, run of 07/31/2023) is 212 nM [middle of 8 runs].

Take `COC1C=CCC(C)C(C)S(=O)(=O)NC(=O)c2ccc3c(c2)N(CC2CCC21)CC1(CCCc2cc(Cl)ccc21)CO3` (configuration not stated): the pIC50 was 6.25. Further, the viability, T/C (compound 0.0316 µM) was 93.3%. Also, the viability, T/C (compound 0.1 µM) is 92.9%. Moreover, the viability, T/C (compound 0.316 µM) is 79.9%. The viability, T/C (compound 1 µM) was 21%. Further, the viability, T/C (compound 3.16 µM) is 6.86%. Moreover, the viability, T/C (compound 10 µM) is 3.28%.

Regarding `COc1c(OCCCN2CCOCC2)ccc2c3n(c(=NC(=O)c4cnc(N)nc4)nc12)CCN3`, the pIC50 was below 6.00. Moreover, the viability, T/C (compound 0.00316 µM) is 97.1%. Where the note is “compound 0.01 µM”, the viability, T/C was 78.6%. Moreover, under “compound 0.0316 µM”, the viability, T/C is 101%. Besides, the viability, T/C (compound 0.1 µM) was 103%. The viability, T/C (compound 0.316 µM) was 120%. Further, the viability, T/C (compound 1 µM) is 66.1%.

With `Cn1ncnc1[C@H]1c2n[nH]c(=O)c3cc(F)cc(c23)N[C@@H]1c1ccc(F)cc1`, the pIC50 was < 7.00 and 7.10. Further, the viability, T/C (compound 0.000316 µM) is 93.9% and 110%. In addition, the viability, T/C (compound 0.001 µM) is 72.5% and 92.8%. Further, where the note is “compound 0.00316 µM”, the viability, T/C was 77.5% and 109%. Besides, the viability, T/C (compound 0.01 µM) is 109% and 97.4%. Moreover, for the setting “compound 0.0316 µM”, the viability, T/C was 104% and 99.3%. Moreover, the viability, T/C (compound 0.1 µM) is 105% and 37%.

As for `NC(=O)C(=Cn1cnc(-c2cc(C(F)(F)F)cc(C(F)(F)F)c2)n1)c1cncnc1`, the pIC50 is 6.36 and 6.50. Also, under “compound 0.00949 µM”, the viability, T/C was 99% and 110%. In addition, the viability, T/C (compound 0.03 µM) is 99.6% and 106%. The viability, T/C (compound 0.0949 µM) is 111% and 105%. Further, the viability, T/C (compound 0.3 µM) is 71.5% and 52.6%. Further, the viability, T/C (compound 0.949 µM) is 6.85% and 2.59%. Further, the viability, T/C (compound 3 µM) is 1.92% and 0.42%.

For the compound `Nc1ccccc1NC(=O)c1ccc(CNC(=O)OCc2cccnc2)cc1`, the pIC50 was 5.23 and 5.38. Under “compound 0.0316 µM”, the viability, T/C is 103% and 80.6%. Besides, the viability, T/C (compound 0.1 µM) was 94.5% and 89.7%. Besides, the viability, T/C (compound 0.316 µM) was 110% and 94.7%. The viability, T/C (compound 1 µM) is 106% and 113%. Further, the viability, T/C (compound 3.16 µM) was 117% and 65.5%. The viability, T/C (compound 10 µM) is 2.78% and 0.64%.

The values are drawn from PubChem BioAssay AID2060612 (Molecular Pharmacology Branch, DTP, NCI, 2025).
